Assay: Rate of tetrazine ligation, by restoring of fluorescence, stopped-flow spectrophotometer
Conditions: 9:1 H2O:MeOH at 25° C., low concentration
Source text: The rate of the reaction between (E)-Si-(4-hydroxybutyl)-Si-methyl-5-silacycloheptene and tetramethylrhodamine-conjugated dipyridyl tetrazine was studied. The results are shown in Scheme 2. With a rate constant that exceeds 10^7 M^−1s^−1 (Scheme 2), (E)-Si-(4-hydroxybutyl)-Si-methyl-5-silacycloheptene is the most reactive dienophile to date for bioorthogonal applications. As the reaction was too rapid for reliable rate determination by UV-vis kinetics, the inventors determined the rate of the reaction by the restoring of fluorescence after tetrazine ligation at low concentration in 9:1 H2O:MeOH at 25° C. by using an SX 18MV-R stopped-flow spectrophotometer (Applied Photophysics Ltd.). This is depicted in Scheme 4.

C[Si]1(CCCCO)CCC=CCC1 [(E)-Si-(4-hydroxybutyl)-Si-methyl-5-silacycloheptene]
rate constant of reaction with tetrazine: exceeds 10^7 M^−1s^−1

Reference: patent publication US10155777B2, “Trans-cycloheptenes and hetero-trans-cycloheptenes for bioorthogonal coupling” (UNIVERSITY OF DELAWARE, priority 2015, dated 2018)
